Results as given in patent US20020031795A1, “Nitrocoumarins for detecting all micro-organisms” (priority 1998, published 2002).

Legend:
[1] = system: E. coli (NCTC strain 10418); experiment: Fluorescent signal generated by E. coli reducing nitrocoumarins (nitroaryl reductase activity); format: cell-based, Escherichia coli; conditions: 0.105 mmol/l; for Extent of reduction of the substrate (in words): end of the four-hour assay
Protocol: (§1) A sample of the 7-nitrocoumarin derivative is dissolved in 4 ml of hot, distilled water. The mass dissolved to make the stock solution is such that the final concentration of the compound in the assay is 0.105 mmol/l. This solution is added to 96 ml of Mueller-Hinton broth and the mixture is sterile-filtered.
(§2) The E. coli was grown for 24 hours at 35° C. on Columbia agar supplemented with sheep blood. The bacteria were then resuspended in sterile, distilled water and their density was adjusted to 0.5 on the MacFarland scale (i.e. about 10^8 cells/ml). This suspension was then diluted 100-fold in sterile Mueller-Hinton broth (i.e. to a final density of about 10^6 cells/ml).
(§3) Fifty microliters of each nitrocoumarin solution plus 50 μl of bacterial suspension were then added to the wells of a microtiter plate. The plates were incubated at 35° C. and the optical density and fluorescence of each well was read every 30 min for a total of 4 hours. Optical density (690 nm) readings were made using an Anthos 2001 spectrophotometer (Labtech International Limited), and fluorescence (excitation at 365 nm and emission at 440 nm) readings were made on a Biolite F1 2001 fluorometer (Labtech International Limited).
(§4) The effect of the concentration of 7-nitrocoumarin-3-carboxylic acid on the sensitivity of the assay to detect E. coli (NCTC strain 10418) was investigated at concentrations of the indicator ranging from 0 to 0.262 mmol/l. All other conditions were identical to those described in section A above.

[2] = system: Escherichia coli (NCTC 10418); experiment: Growth of E. coli in Mueller-Hinton broth in the presence of nitrocoumarins (optical density 690 nm); format: cell-based; conditions: 0.105 mmol/l
Protocol: as §1, §2, §3, §4

| Structure (SMILES) | Fluorescent signal ([1]; 0 min) | Fluorescent signal ([1]; 30 min) | Fluorescent signal ([1]; 60 min) | Fluorescent signal ([1]; 90 min) | Fluorescent signal ([1]; 120 min) | Fluorescent signal ([1]; 150 min) | Fluorescent signal ([1]; 180 min) | Fluorescent signal ([1]; 210 min) | Fluorescent signal ([1]; 240 min) | Optical density (690 nm) ([2]; 0 min) | Optical density (690 nm) ([2]; 30 min) | Optical density (690 nm) ([2]; 60 min) | Optical density (690 nm) ([2]; 90 min) | Optical density (690 nm) ([2]; 120 min) | Optical density (690 nm) ([2]; 150 min) | Optical density (690 nm) ([2]; 180 min) | Optical density (690 nm) ([2]; 210 min) | Optical density (690 nm) ([2]; 240 min) | also measured |
| --- | --- | --- | --- | --- | --- | --- | --- | --- | --- | --- | --- | --- | --- | --- | --- | --- | --- | --- | --- |
| Cc1cc(=O)oc2cc([N+](=O)[O-])ccc12 [4-methyl-7-nitrocoumarin] | 0 | 15 | 302 | 974 | 2008 | 3299 | 5097 | 7545 | 11125 | 0.000 | 0.000 | 0.002 | 0.004 | 0.010 | 0.024 | 0.055 | 0.113 | 0.175 | – |
| CC(=O)c1c(C)c2ccc([N+](=O)[O-])cc2oc1=O [3-acetyl-4-methyl-7-nitrocoumarin] | 0 | 40 | 390 | 992 | 1804 | 2811 | 4090 | 5576 | 8017 | 0.000 | −0.003 | −0.002 | −0.001 | 0.002 | 0.008 | 0.023 | 0.051 | 0.110 | – |
| COC(=O)c1cc2ccc([N+](=O)[O-])cc2oc1=O [methyl-7-nitrocoumarin-3-carboxylate] | 0 | 174 | 702 | 1297 | 2035 | 2905 | 3946 | 5005 | 6668 | 0.000 | −0.001 | −0.001 | 0.000 | 0.000 | 0.002 | 0.006 | 0.014 | 0.032 | Extent of reduction of the substrate (in words) [1]: least reduced; Inhibitory effect on the growth of E. coli (in words) [2]: most powerful inhibitors; OD readings reduced compared with the untreated control [2]: 92% |
| O=C(c1cc2ccc([N+](=O)[O-])cc2oc1=O)N1CCOCC1 [7-nitrocoumarin-3-carboxymorpholide] | 0 | 180 | 665 | 1376 | 2414 | 3796 | 5817 | 8454 | 12263 | 0.000 | −0.002 | −0.001 | 0.001 | 0.005 | 0.014 | 0.037 | 0.068 | 0.109 | – |
| O=c1ccc2ccc([N+](=O)[O-])cc2o1 [7-nitrocoumarin] | 0 | 77 | 519 | 1447 | 2915 | 4713 | 7160 | 10182 | 14189 | 0.000 | −0.002 | 0.000 | 0.002 | 0.009 | 0.025 | 0.072 | 0.133 | 0.211 | – |
| CCCC(=O)c1cc2ccc([N+](=O)[O-])cc2oc1=O [3-butyryl-7-nitrocoumarin] | 0 | 64 | 387 | 894 | 1538 | 2344 | 3329 | 4642 | 6845 | 0.000 | 0.001 | 0.005 | 0.007 | 0.009 | 0.012 | 0.015 | 0.039 | 0.096 | Extent of reduction of the substrate (in words) [1]: least reduced; Inhibitory effect on the growth of E. coli (in words) [2]: most powerful inhibitors |
| CCOC(=O)c1cc2ccc([N+](=O)[O-])cc2oc1=O [ethyl-7-nitrocoumarin-3-carboxylate] | 0 | 173 | 814 | 1703 | 2813 | 4126 | 5646 | 7370 | 10859 | 0.000 | −0.005 | −0.008 | −0.008 | −0.006 | 0.000 | 0.018 | 0.046 | 0.116 | – |
